Laboratory results as given in patent US6569633B1, “Modulation of the sulfonylurea receptor and calcium in adipocytes for treatment of obesity/diabetes” (Artecel Science, Inc., priority 1998, dated 2003).

Assays:
human adipocytes [1] = test: Lipolysis (glycerol release into the culture medium) in human adipocytes; format: cell-based
Experimental: FIG. 4. The anti-lipolytic effect of glibenclamide in human adipocytes. Activation of lipolysis in adipocytes is typically measured by release of glycerol into the media. Human adipocytes were treated with 10 μM glibenclamide alone, 10 μM glibenclamide plus 10 μM diazoxide or 10 μM glibenclamide plus 30 μM nitrendipine for 48 hr. Glycerol release was determined as described (19). *p<0.01 vs. Control.
Human adipocytes were examined for changes in lipolysis regulation by measurement of glycerol release into the media. Glycerol was measured by using a standard method (19), although other techniques for measuring glycerol would be equally useful.
Human subcutaneous abdominal adipose tissue was obtained from patients undergoing elective abdominal cosmetic surgery, although other types of adipose tissue, such as mesenteric, retroperitoneal, perirenal, or omental may be useful in identifying these compounds. Preadipocytes are isolated by collagenase treatment of the tissue and cultured adipocytes prepared as described (patent filed; Jan. 29, 1999; Ser. No. 09/240,029). Agents that regulate calcium flux in adipocytes as noted above can mediate lipolysis. Human adipocytes may be cultured in multi-well plates with different treatments between 1 hour or 24 hours as indicated, and glycerol release into the culture medium was determined as an indicator for lipolysis using a one-step enzymatic fluorometric method. The media collected from 1 hr treatments were used directly for glycerol measurements. For 24 hr treatments, media were removed, and cells were washed with Hank's Balanced Salt Solution and incubated in fresh medium for a further 10-60 min. This media were then used for glycerol measurements for 24 hr treatments.
We next investigated the role of adipocyte SUR1 on lipolysis. Lipolysis was measured as follows. Human adipocytes were treated as described below and glycerol release into the culture medium was determined as an indicator for lipolysis using a one step enzymatic fluorometric method (19). After treatment medium was obtained, HClO4 was added for deproteinization.
Agents that regulate calcium flux in adipocytes as noted above can mediate lipolysis. Human adipocytes (1 mL cells/well) were incubated in 24-well plates with different treatments for either 1 hour or 24 hours as indicated, and glycerol release into the culture medium was determined as an indicator for lipolysis using a one-step enzymatic fluorometric method. The media collected from 1 hr treatments were used directly for glycerol measurements. For 24 hr treatments, media were removed, and cells were washed with Hank's Balanced Salt Solution and incubated in fresh medium for a further 30 min. This media were then used for glycerol measurements for 24 hr treatments. After medium was collected, HClO4 was added to give a final concentration of 3% for deproteinization. The sample was centrifuged at 9000×g for 20 min. The supernatant was then collected and neutralized with 10N NaOH. Samples were stored at −80° C. prior to glycerol assay. Cells were collected, homogenized and stored at −80° C. for subsequent total protein correction by a modified Bradford method using Coomassie Blue dye (PIERCE, Rockford, Ill.).

[2] = test system: FAS activity in human adipocytes; test: Fatty acid synthase (FAS) activity in human adipocytes; format: cell-based
human adipocytes [3] = test: Triglyceride accumulation in human adipocytes; format: cell-based; conditions: for triglyceride content: control 30.3±0.3
Experimental: Human subcutaneous abdominal adipocytes were isolated from healthy patients undergoing cosmetic liposuction using methodology we have previously described. Briefly, the tissue was washed several times with Hank's Balanced Salt Solution, minced into small fragments and digested with type I collagenase (1 mg/mL) in a shaking water bath at 37° C. for 30-40 minutes. Cells were then filtered through a sterile nylon filter (500 μm mesh) and cultured in Dulbecco's Modified Eagle's Medium (DMEM) supplemented with 1% fetal bovine serum, 1% bovine serum albumin, 100 U/mL penicillin, 100 μg/mL streptomycin and 50 μg/mL gentamicin. Cells were subsequently cultured in suspension in sterile polypropylene flasks in a humidified 37° C./5% CO2 incubator. After one day, suspended (floating) adipocytes were transferred to fresh medium and maintained as a thin layer at the top of the culture medium to ensure access to nutrients. The cells were maintained for another 24 hours in this medium and then changed to fresh medium with the addition of SUR agonists (such as glibenclamide) for up to 48 hours with the compounds to be tested. Medium was changed every 24 hours, and cell viability was verified with trypan blue exclusion at the end of representative experiments.
Stimulation of fatty acid synthase and concomitant inhibition of lipolysis results in increased lipid accumulation in human adipocytes. Adipocytes were treated as described above, harvested, and their triglyceride content was analyzed and normalized for protein content. […] Thus, these calcium-stimulated biochemical activities will contribute to the development of adipocyte hypertrophy and potentially obesity.

human adipocytes [4] = test: Intracellular Ca2+ ([Ca2+]i) by fura-2 fluorometry in isolated human adipocytes; format: cell-based
Experimental: FIG. 2. Glibenclamide stimulation of [Ca^2+]i in isolated human adipocyte. [Ca^2+]i in isolated human adipocytes was determined fluorometrically as previously described (4,7). Briefly, the human adipocytes isolated as described above were incubated in DMEM medium overnight for cell recovery. Prior to [Ca^2+]i measurement, adipocytes were pre-incubated in serum-free medium for 2 hrs, rinsed with HBSS solution containing the following components in mM: NaCl 138, CaCl2 1.8, MgSO4 0.8, NaH2PO4 0.9, NaHCO3 4, glucose 20, glutamine 6, HEPES 20 and BSA 1%. Cells were then loaded with fura-2 acetoxymethyl ester (10 μM) in the same buffer for 45 min at 37° C. in the dark with continuous shaking. To remove extracellular dye, cells were rinsed with HBSS for 3 times and resuspended in this solution at a concentration of 2×10^5 cells/ml. [Ca^2+]i was measured using dual excitation (340 and 380 nm) and single emission (510 nm) fluorometry. Following the establishment of stable baseline, the response to glibenclamide (10 and 20 μM) was determined. Digitonin (25 μM) and Tris/EGTA (100 mM) were used to measure maximal and minimal fluorescence to calibrate the signals, and final [Ca^2+]i was then calculated by the equation of Grynkiewicz et al. (17). […] Glibenclamide (Glib) was added at time designated by the arrow. B. The dose-responsive effect of glibenclamide on [Ca^2+]i in human adipocytes. Glibenclamide was added at 10 and 20 µM at the indicated times. *p<0.05 vs. Control, **p<0.05 vs. 10 μM glibenclamide.
The functionality of the SUR1 receptor was determined with respect to calcium mobilization and small molecule effects. [Ca^2+]i response was measured fluorometrically in isolated human adipocytes using a standard method (2,16). Briefly, isolated human adipocytes were incubated in DMEM or any other suitable medium such as Ham's F-10, Modified Eagle's media plus 5-10% fetal calf serum overnight for cell recovery. Prior to [Ca^2+]i measurement, adipocytes were pre-incubated in serum-free medium for 2 hrs, rinsed with HBSS solution containing the following components in mM: NaCl 138, CaCl2 1.8, MgSO4 0.8, NaH2PO4 0.9, NaHCO3 4, glucose 20, glutamine 6, HEPES 20 and BSA 1%. Cells were then loaded with fura-2 acetoxymethyl ester (10 μM) in the same buffer for 30-60 min at 37° C. in dark with continuous shaking. To remove extracellular dye, cells were rinsed with HBSS for three times and resuspended in this solution at a concentration of 1-10×10^5 cells/ml. [Ca^2+]i was measured using dual excitation (340 and 380 nm) and single emission (510 nm) fluorometry. Following the establishment of stable baseline, the response to a SUR agonist such as glibenclamide (1-20 μM) can be determined. Digitonin (25 μM) and Tris/EGTA (100 mM) were used to measure maximal and minimal fluorescence to calibrate the signals, and final [Ca^2+]i was then calculated by a known method such as described in Grynkiewicz et al (17).
Correlation of lipolysis with flux of intracellular calcium ([Ca^2+]i) concentration is then performed. [Ca^2+]i is measured in primary adipocytes. For primary adipocytes, 3 ml of cells are resuspended in 6 ml of HBSS and fura-2/AM was loaded for 80 min at 37° C. Extracellular fura-2/AM is washed three times with HBSS by centrifugation. [Ca^2+]i levels are then measured fluorometrically in suspensions using dual excitation (340 and 380 nm)/single emission (510 nm) fluorometry and [Ca^2+]i is calculated by the computer in the fluorometer. As a control, after loading fura-2/AM cells are pretreated with nitrendipine (RBI, Natick, Mass.) (30 μM, final concentration) for 10 min at 37° C.

[5] = test system: GPDH activity in human adipocytes; test: GPDH activity in human adipocytes; format: cell-based; conditions: 10 μM glibenclamide plus 10 μM diazoxide
Experimental: FIG. 3. The lipogenic effect of glibenclamide in human adipocytes. As an indicator of lipogenic stimulation, both FAS and GPDH activity were measured. A. Glibenclamide stimulation of FAS activity. Human adipocytes were treated with 10 μM glibenclamide alone, 10 μM glibenclamide plus 10 μM diazoxide or 10 μM glibenclamide plus 30 μM nitrendipine for 48 hr. FAS was measured as described (6, 14). *p<0.001 vs. Control. B. Glibenclamide stimulation of GPDH activity. Human adipocytes were treated with 10 μM glibenclamide or 10 μM glibenclamide plus 10 μM diazoxide for 48 hr. GPDH activity was measured as described (14). *p<0.01 vs. Control.
To study the role of adipocyte SUR1 in regulating lipogenesis, we treated human adipocyte with SUR1 agonist and antagonist using FAS and GPDH activities as lipogenic markers. Human adipocytes were incubated in 24-well plates with the treatments indicated for 48 hr. FAS and GPDH activities were determined spectrophotometrically in crude cytosolic extracts of human adipocytes by measuring the oxidation rate of NADPH or NADH respectively, as previously described (14). The protein correction was measured by a modified Bradford method using Coomassie Blue dye (Pierce, Rockford, Ill.).

obese Zucker rats = conditions: cited from earlier work
[6] = test system: hyperinsulinemic obese adults; conditions: cited from earlier work

[Cl-].[K+] [KCl]
lipolysis, % of control levels (human adipocytes [1]; 10 mM KCl, twenty-four hour exposure): 75.9±4.1%
inhibition of forskolin-induced lipolysis (human adipocytes [1]; 25 mM KCl, short-term (one-hour)): 42±5%
inhibition of forskolin-induced lipolysis (human adipocytes [1]; 40 mM KCl, short-term (one-hour)): 50±1.7%
fatty acid synthase activity ([2]; 40 mM KCl for two hours, harvested approximately 72 hours later, control 3.93±0.11): 6.24±0.2 nmol NADPH/min/mg protein
fatty acid synthase activity ([2]; 40 mM KCl, control 2.87 (diazoxide experiment)): 6.20±0.57 nmol/min/mg protein
triglyceride content (human adipocytes [3]; 40 mM KCl): 43.5±0.5 μg/mg protein

C=C[C@@]1(C)CC(=O)[C@]2(O)[C@@]3(C)[C@@H](O)CCC(C)(C)[C@@H]3[C@H](O)[C@H](OC(C)=O)[C@@]2(C)O1 [forskolin]
increase in lipolysis (human adipocytes [1]; 1 μM forskolin): 48%

CCOC(=O)C1=C(C)NC(C)=C(C(=O)OC)C1c1cccc([N+](=O)[O-])c1 (stereo not drawn) [nitrendipine]
fatty acid synthase activity ([2]; 1 nM insulin plus 30 μM nitrendipine): 4.12 ± 0.03 nmol/min/mg
reduction in insulin-stimulated triglyceride accumulation (human adipocytes [3]; 1 nM insulin plus nitrendipine): 40%

insulin
fatty acid synthase activity ([2]; 1 nM insulin, control 3.95±0.11): 14.56±0.22 nmol/min/mg protein

CNc1ccc2oc(C[C@H]3O[C@@]4(CC[C@H]3C)O[C@H]([C@H](C)C(=O)c3ccc[nH]3)[C@H](C)C[C@H]4C)nc2c1C(=O)O [A23187]
triglyceride accumulation (human adipocytes [3]; two-hour exposure to 10 nM A23187, ensuing 48 hours, control 31.4±2.4): 52±7 μg/mg protein

NC(=O)CC[C@@H]1NC(=O)[C@H](Cc2ccccc2)NC(=O)[C@H](Cc2ccc(O)cc2)NC(=O)[C@@H](N)CSSC[C@@H](C(=O)N2CCC[C@H]2C(=O)N[C@@H](CCCN=C(N)N)C(=O)NCC(N)=O)NC(=O)[C@H](CC(N)=O)NC1=O [AVP, arginine vasopressin]
inhibition of forskolin-induced lipolysis (human adipocytes [1]; 1 nM AVP, short-term): 56±6.6%
fatty acid synthase activity ([2]; 1 nM AVP): 6.9±0.1 nmol/min/mg protein

CC1=NS(=O)(=O)c2cc(Cl)ccc2N1 [diazoxide]
[Ca2+]i response to any dose of glibenclamide (human adipocytes [4]; in the presence of 5 μM diazoxide): no detectable response
[Ca2+]i response to any dose of glibenclamide (human adipocytes [4]; in the presence of 2-10 μM diazoxide): no detectable response
fatty acid synthase activity ([2]; 1 nM insulin and 5 μM diazoxide): 7.08 ± 0.10 nmol/min/mg
fatty acid synthase activity ([2]; 5 μM diazoxide and 2 μM glibenclamide): 1.00±0.10 nmol/min/mg protein
fatty acid synthase activity ([2]; 5 μM diazoxide and 10 μM glibenclamide): 1.21±0.31 nmol/min/mg protein
glibenclamide-caused increase in FAS activity ([2]; 10 μM glibenclamide plus 10 μM diazoxide, 48 hr): completely blocked
fatty acid synthase activity ([2]; 40 mM KCl in the presence of 5 μM diazoxide): 3.24±0.41 nmol/min/mg protein
glibenclamide-induced increases in fatty acid synthase activity ([2]; inclusion of 5 μM diazoxide): completely prevented
glibenclamide-stimulated increase in GPDH activity [5]: totally blocked
effect on obesity (obese Zucker rats): antiobesity effect
effect on obesity [6]: significant antiobesity effect

B1: agouti: recombinant agouti protein, purified agouti gene product from a baculovirus expression system (protein, UniProt Q03288 23-131, looked up)
Agouti-signaling protein: HLALEETLGDDRSLRSNSSMNSLDFSSVSIVALNKKSKKISRKEAEKRKRSSKKKASMKKVARPPPPSPCVATRDSCKPPAPACCDPCASCQCRFFGSACTCRVLNPNC
decrease in basal lipolysis (human adipocytes [1]; 100 nM recombinant agouti, 24 hr): 60%
effect on basal lipolysis (human adipocytes [1]; 100 nM recombinant agouti, short-term (1 hr)): no effect
forskolin-induced increase in lipolysis (human adipocytes [1]; 1 μM forskolin plus 100 nM agouti): reversed
ACTH-induced lipolysis (human adipocytes [1]; short-term agouti treatment): totally inhibited

B2: parathyroid hormone (peptide, UniProt P01270 32-115, looked up)
Parathyroid hormone: SVSEIQLMHNLGKHLNSMERVEWLRKKLQDVHNFVALGAPLAPRDAGSQRPRKKEDNVLVESHEKSLGEADKADVNVLTKAKSQ
modifications: Parathyroid hormone
notes: stimulator of receptor-mediated Ca2+ influx
fatty acid synthase activity ([2]; 4.8 nM PTH): 6.9±0.1 nmol/min/mg protein
triglyceride content (human adipocytes [3]; 4.8 nM PTH): 54.5±0.6 μg/mg protein
